The zone of inhibition is the size of the clear area around the sample on an inoculated plate.

The subject of experiment [1] is wild-type Staphylococcus aureus (ATCC 29212). Kind of experiment: Disk sensitivity assay, wild-type S. aureus. The experiment is classed as cell-based. As to conditions: for zone of inhibition at 2000 µg/mL: Staphylococcus aureus, ATCC29212, 18 h. The protocol: The antimicrobial activities of the total organic solvent extract from A. euchroma, obtained as described in Example 1 above, and the red colored active fraction from A. euchroma, obtained as described in Example 2 above, were evaluated using a disk sensitivity assay.
(§1) More specifically, wild-type Staphylococcus aureus (ATCC 29212) was grown in Luria broth (L-broth) at 37° C. to exponential phase, diluted to 1.0×10^7 bacteria/ml, and mixed with minimal medium (M63, +salt and glucose) with 0.15% (w/v) soft agar. The mixture was poured over a minimal agar plate (minimal medium +0.7% (w/v) agar). Filter paper disks (6.0 mm in diameter) were then impregnated with 20 μl of total organic solvent extract from A. euchroma (containing 10 mg/ml of naphthaquinone compounds in dimethyl formamide (DMF)); 20 μl of total organic solvent extract from L. erythrorhizon (containing 10 mg/ml of naphthaquinone compounds in DMF); 20 μl of the red colored active fraction from A. euchroma isolated using TLC (10 mg/ml in DMF); 20 μl of the red colored active fraction from A. euchroma isolated using the silica gel column (10 mg/ml in DMF); or 20 μl of DMF as control, and placed on the surface of the agar plates. The plates were then incubated at 37° C. for 18 hrs.
(§2) The disk assay described above was carried out on wild-type S. aureus and antibiotic-resistant S. aureus using 20 μl of the red colored active fraction from A. euchroma isolated using TLC (10 mg/ml in DMF); 20 μl of the red colored active fraction from A. euchroma isolated using the silica gel column (10 mg/ml in DMF); or 20 μl of DMF as a control.
(§3) The anti-microbial activities of the 6 individual components were determined using the disk sensitivity assay described above.
(§4) More specifically, filter paper disks impregnated with 20 μl of each individual component (2.0 mg/ml) were placed on top of the agar plate. The plates were developed as described in Example 4 above.

For experiment [2], the system named is antibiotic-resistant Staphylococcus aureus (ATCC 27695). Kind of experiment: Disk sensitivity assay, antibiotic-resistant S. aureus. The experiment is classed as cell-based. As to conditions: for zone of inhibition at 2000 µg/mL: Staphylococcus aureus, ATCC27695, 18 h. The protocol:
as §1
The disk assay described above was carried out using antibiotic-resistant Staphylococcus aureus (ATCC 27695), and 20 μl of the total organic solvent extract from A. euchroma (containing 10 mg/ml of naphthaquinone compounds in DMF); 20 μl of the total organic solvent extract from L. erythrorhizon (containing 10 mg/ml of naphthaquinone compounds in DMF); or 20 μl of DMF as a control.
as §2, §3, §4

The test system of experiment [3] is wild-type Staphylococcus aureus. Nature of the experiment: Minimum inhibitory concentration in liquid culture, wild-type strain. The format is cell-based. The procedure:
(§5) Next, the MIC for the total organic solvent extract from A. euchroma, obtained as described in Example 1 above, against wild-type Staphylococcus aureus and antibiotic-resistant Staphylococcus aureus were determined in liquid culture using L-broth with different amounts of total organic solvent extract, and compared to the MIC for common antibiotics.
(§6) More specifically, different concentrations of total organic solvent extract was added to 1.0 ml of L-broth, and inoculated with 50 μl of an overnight growth of bacteria (about 1.0×10^8 cells). The resulting samples were incubated overnight at 37° C. The MIC was then determined by measuring the minimal concentration of extract needed to inhibit the growth of the bacteria.
The MIC of the six individual components were determined using wild-type S. aureus and the liquid culture method as described above.

For experiment [4] the following is noted: literature (Tanaka et al; Kyogoku et al; Honda et al); cited from earlier work.
The conditions of experiment [5]: literature (Tanaka et al, 1986); cited from earlier work.
The subject of experiment [6] is antibiotic-resistant Staphylococcus aureus clinical isolates. Nature of the experiment: Antibiotic resistance (MIC) of S. aureus clinical isolates. The format is cell-based.
Experiment [7] relates to antibiotic-resistant Staphylococcus aureus. Kind of experiment: Minimum inhibitory concentration in liquid culture, antibiotic-resistant strain. The format is cell-based. As to conditions: read-out: Minimum Inhibitory Concentration (MIC). The protocol:
as §5, §6

Setting [8] is: wild-type S. aureus, liquid culture, Table 10.
Setting [9] is: Wild-Type Strain, individual components, 20 μl of 2.0 mg/ml, Table 9.
The mark [10] stands for this setting: Antibiotic-resistant Strain, individual components, 20 μl of 2.0 mg/ml, Table 9.
Setting [11] is: read-out: Antibiotic Resistance (MIC), Strain 3-44.
Setting [12] is: Staphylococcus aureus, read-out: Minimum Inhibitory Concentration (MIC).
Setting [13] is: Strain 3-16, read-out: Antibiotic Resistance (MIC).
Where [14] appears, read: Strain 3-20, read-out: Antibiotic Resistance (MIC).
[15] abbreviates: Strain 5-37, read-out: Antibiotic Resistance (MIC).
[16] abbreviates: Strain 5-38, read-out: Antibiotic Resistance (MIC).
Where [17] appears, read: Strain 5-39, read-out: Antibiotic Resistance (MIC).
The mark [18] stands for this setting: Strain 5-47, read-out: Antibiotic Resistance (MIC).
Where [19] appears, read: Wild-Type Strain, individual components, 20 μl of 2.0 mg/ml, Table 9, read-out: Zone of inhibition.
Setting [20] is: Antibiotic-resistant Strain, individual components, 20 μl of 2.0 mg/ml, Table 9, read-out: Zone of inhibition.
The mark [21] stands for this setting: Staphylococcus aureus, wild-type S. aureus, liquid culture, Table 10, read-out: MIC.

SMILES strings stand for the structures. Converted amounts (≈) assume the structure as drawn. Like-named read-outs stand apart in the source and are kept apart here.

`CC(C)=CC[C@@H](O)C1=CC(=O)c2c(O)ccc(O)c2C1=O` (single isomer, unassigned) [Peak I, Shikonin]: the zone of inhibition at 2000 µg/mL in experiment [1] and in experiment [2] was 18 mm in each case. For the same compound, the “appearance of zone of inhibition” value in experiment [1] (wild-type S. aureus, individual components, 2.0 mg/ml) is “the inhibition was not complete, as shown by an opaque, rather than a clear zone”; in experiment [2] (antibiotic-resistant S. aureus, individual components, 2.0 mg/ml), “the inhibition was not complete, as shown by an opaque, rather than a clear zone”. The compound also came in with an MIC in experiment [3] (Staphylococcus aureus) of 4 to 5 µg/mL (≈ 13.9 to 17.3 µM). The antimicrobial activity result in experiment [4] is given as “antimicrobial activity”. Further, in experiment [5], the anti-inflammatory activity result is recorded as “anti-inflammatory activity”.

As for `CC(=O)O[C@H](CC=C(C)C)C1=CC(=O)c2c(O)ccc(O)c2C1=O` (single isomer, unassigned) [Peak II, Acetyl shikonin], the zone of inhibition at 2000 µg/mL was 10 mm in experiment [1] and 17 mm in experiment [2]. In experiment [3] (Staphylococcus aureus), this compound registered an MIC of 0.5 to 1 µg/mL (≈ 1.51 to 3.03 µM). In experiment [3] (setting [8]), the “activity ranking among the individual components (MIC)” value is listed as “the most active”.

Regarding `CC(C)=CC[C@@H](OC(=O)CC(C)=C(C)C)C1=CC(=O)c2c(O)ccc(O)c2C1=O` (single isomer, unassigned; peak iii) [Peak III, Teracryl shikonin], the Zone of inhibition in experiment [1] (setting [9]) is on record as 7.5 mm; in experiment [2] (setting [10]), 7.0 mm. Moreover, in experiment [3] (setting [8]), the MIC is 4.0 to 6.0 µg/mL.

In the case of `CC(C)=CC[C@@H](OC(=O)CC(C)(C)O)C1=CC(=O)c2c(O)ccc(O)c2C1=O` (single isomer, unassigned; peak iv) [Peak IV, Hydroxyisovaleryl shikonin], the Zone of inhibition in experiment [1] (setting [9]) and in experiment [2] (setting [10]) was 7.0 mm in each case. The same compound registered an MIC in experiment [3] (setting [8]) of 4.0 to 6.0 µg/mL.

As for `CC[C@H]1OC(=O)[C@H](C)[C@@H](O[C@H]2C[C@@](C)(OC)[C@@H](O)[C@H](C)O2)[C@H](C)[C@@H](O[C@@H]2O[C@H](C)C[C@H](N(C)C)[C@H]2O)[C@](C)(O)C[C@@H](C)C(=O)[C@H](C)[C@@H](O)[C@]1(C)O` [Erythromycin], the MIC is over 32 µg/mL in experiment [6] (setting [11]); over 32 µg/mL in experiment [6] (read-out: Antibiotic Resistance (MIC), Strain 5-75); over 32 µg/mL in experiment [6] (read-out: Antibiotic Resistance (MIC), Strain 5-76); over 32 µg/mL in experiment [6] (read-out: Antibiotic Resistance (MIC), Strain 5-77); 4 µg/mL (≈ 5.45 µM) in experiment [6] (read-out: Antibiotic Resistance (MIC), Strain 5-78); under 1 µg/mL in experiment [3] (setting [12]). In addition, the MIC in experiment [7] is over 20 µg/mL.

Turning to `COc1cccc(OC)c1C(=O)N[C@@H]1C(=O)N2[C@@H]1SC(C)(C)[C@@H]2C(=O)O` [Methicillin], the MIC in experiment [6] (setting [13]) is 32 µg/mL (≈ 84.1 µM); in experiment [6] (setting [14]) it was 128 µg/mL (≈ 336 µM); in experiment [6] (setting [15]), over 128 µg/mL; in experiment [6] (setting [16]), 32 µg/mL (≈ 84.1 µM); in experiment [6] (setting [17]) it was 128 µg/mL (≈ 336 µM); in experiment [6] (setting [18]), over 128 µg/mL.

As for `CO[C@@H]1[C@@H](OC(N)=O)[C@@H](O)[C@H](Oc2ccc3c(O)c(NC(=O)c4ccc(O)c(CC=C(C)C)c4)c(=O)oc3c2C)OC1(C)C` [Novobiocin], the MIC is under 2 µg/mL in experiment [3] (setting [12]) and over 20 µg/mL in experiment [7].

In the case of `CC(C)=CC[C@@H](OC(=O)C(C)C)C1=CC(=O)c2c(O)ccc(O)c2C1=O` [Peak V, Isobutyl shikonin], the zone of inhibition at 2000 µg/mL in experiment [1] (setting [19]) and in experiment [2] (setting [20]) was 7 mm each time. Also, the MIC in experiment [3] (setting [21]) fell in the range of 2 to 4 µg/mL (≈ 5.58 to 11.2 µM).

As for `CC(C)=CCC(OC(=O)C=C(C)C)C1=CC(=O)c2c(O)ccc(O)c2C1=O` (stereo not drawn) [Peak VI, β, β-dimethylacryl shikonin], the zone of inhibition at 2000 µg/mL in experiment [1] (setting [19]) and in experiment [2] (setting [20]) was 7 mm throughout. The MIC in experiment [3] (setting [21]) was under 2 µg/mL. The “activity ranking among the individual components (MIC)” value in experiment [3] (setting [8]) is listed as “the most active”.

Turning to `CC1(C)S[C@@H]2[C@H](NC(=O)Cc3ccccc3)C(=O)N2[C@H]1C(=O)O` [Penicillin G], the MIC in experiment [6] (read-out: Antibiotic Resistance (MIC), Strain 6515) was over 20 µg/mL.

Regarding `CCN1CCN(C(=O)N[C@@H](C(=O)N[C@@H]2C(=O)N3[C@@H]2SC(C)(C)[C@@H]3C(=O)O)c2ccccc2)C(=O)C1=O` [Piperacillin], the MIC in experiment [6] (setting [13]) is 32 µg/mL (≈ 61.8 µM); in experiment [6] (setting [14]), 128 µg/mL (≈ 247 µM); in experiment [6] (Strain 4-15, read-out: Antibiotic Resistance (MIC)), 32 µg/mL (≈ 61.8 µM); in experiment [6] (Strain 4-44, read-out: Antibiotic Resistance (MIC)), over 128 µg/mL; in experiment [6] (Strain 4-50, read-out: Antibiotic Resistance (MIC)), 32 µg/mL (≈ 61.8 µM); in experiment [6] (setting [15]), over 128 µg/mL. The MIC in experiment [6] (setting [16]) is 32 µg/mL (≈ 61.8 µM); in experiment [6] (setting [17]), 128 µg/mL (≈ 247 µM); in experiment [6] (setting [18]), over 128 µg/mL.

Regarding `CN(C)C1C(=O)C(C(N)=O)=C(O)C2(O)C(=O)C3=C(O)c4c(O)cccc4C(C)(O)C3CC12` (stereo not shown) [Tetracycline], the MIC is over 32 µg/mL in experiment [6] (setting [11]); over 32 µg/mL in experiment [6] (read-out: Antibiotic Resistance (MIC), Strain 1206); 1 to 2 µg/mL (≈ 2.25 to 4.5 µM) in experiment [3] (setting [12]); over 20 µg/mL in experiment [7].

Take `CC(C)=CCCC1=CC(=O)c2c(O)ccc(O)c2C1=O` [deoxyshikonin]: the antimicrobial activity entry in experiment [4] was “antimicrobial activity”. Further, in experiment [5], the anti-inflammatory activity entry is “anti-inflammatory activity”.
